These results are taken from ChEMBL document CHEMBL1201862, “PubChem BioAssay data set” (2004).

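Interpolation was linear, between the two tested concentrations surrounding the appropriate level; five concentrations were tested over 48 hours in 96-well plates. Abbreviation: GI50, concentration required for 50% inhibition of growth.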 Calls of active or inactive are those of the source. Rule as the data show it: active = GI50 up to about 1.1 µM and inactive = higher.

Holding throughout (assay): NCI anticancer screen, dose series, 48 h
For assay [1], the system named is HCC 2998.
The subject of assay [2] is Malme-3M.
Assay [3] has as its system HT-29.
In assay [4] the test system is OVCAR-3.
The subject of assay [5] is DMS-273.
Assay [6] deals with EKVX.
For assay [7], the system named is KM12.
Assay [8] concerns NCI-H226.
Assay [9] deals with NCI-H23.
Assay [10] deals with SK-MEL-28.
Assay [11] has as its system SF-295.
The test system of assay [12] is MOLT-4.
For assay [13], the system named is OVCAR-4.
Assay [14] relates to UACC-257.
Assay [15] has as its system HCT-15.
Assay [16] concerns OVCAR-8.
For assay [17], the system named is HOP-92.
Assay [18] relates to COLO 205.
For assay [19], the system named is SNB-19.
For assay [20], the system named is SR.

With `Cc1[nH]c2ccccc2c1/C=C/c1c(C)[nH]c2ccccc12`, the GI50 in assay [1], in assay [2], in [3], in [4], in assay [5] and in assay [6] was > 100 µM (inactive) each time. In addition, the GI50 in assay [7], in assay [8], in assay [9], in assay [10], in assay [11] and in assay [12] was > 100 µM (inactive) in each case. Besides, the GI50 is > 100 µM (inactive) in assay [13], > 100 µM (inactive) in [14], greater than 100 µM in assay [15] and > 100 µM (inactive) in [16].

Consider `COc1ccc2c(c1)OC[C@@H]1c3cc4c(cc3O[C@H]21)OCO4`, for which the GI50 in [1] is > 100 µM (inactive); in assay [2], > 100 µM (inactive); in [3], > 100 µM (inactive); in assay [17] it was 70 µM (inactive); in assay [4], > 100 µM (inactive); in assay [5], > 100 µM (inactive). In addition, the GI50 in assay [6], in assay [18], in assay [7], in assay [8], in assay [9] and in assay [10] was > 100 µM (inactive) in each case. The GI50 is > 100 µM (inactive) in assay [11]; 30.4 µM (inactive) in assay [19]; > 100 µM (inactive) in assay [12]; 35.7 µM (inactive) in assay [13]; greater than 100 µM in assay [15]; > 100 µM (inactive) in assay [16].

On to `Brc1ccc2[nH]cc([C@@H]3CN[C@@H](c4c[nH]c5ccc(Br)cc45)CN3)c2c1`, for which the GI50 was 6.52 µM (inactive) in assay [1]; 14.8 µM (inactive) in assay [2]; 5.71 µM (inactive) in assay [3]; 1.36 µM (inactive) in assay [17]; 4.8 µM (inactive) in [4]; 1.86 µM (inactive) in [20]. Also, the GI50 in [6] is 5.57 µM (inactive); in assay [18] it was 1.96 µM (inactive); in assay [7] it was 2.07 µM (inactive); in assay [8], 7.55 µM (inactive); in assay [9] it was 9.95 µM (inactive); in assay [10], 13.7 µM (inactive). In addition, the GI50 in assay [11] is 3.72 µM (inactive); in [19], 11.4 µM (inactive); in [12] it was 1.98 µM (inactive); in assay [13] it was 4.76 µM (inactive); in assay [14], 8.95 µM (inactive); in assay [15], 9.44 µM. Also, the GI50 in assay [16] is 3.63 µM (inactive).

As for `Cc1cccc(-c2nc3c(C(=O)NCCN(C)C)cccc3[nH]2)c1`, the GI50 in [1] was 1 µM (active); in assay [3], 0.52 µM (active); in assay [17] it was 1.28 µM (inactive); in assay [4], 1.89 µM (inactive); in [5], 0.411 µM (active); in [6] it was 1.46 µM (inactive). Moreover, the GI50 is 0.363 µM (active) in [18]; 0.944 µM (active) in assay [7]; 1.85 µM (inactive) in assay [8]; 1.06 µM (active) in [9]; 2.04 µM (inactive) in [10]; 1.1 µM (active) in assay [11]. The GI50 in assay [19] is 1.98 µM (inactive); in assay [12], 0.406 µM (active); in assay [13], 0.809 µM (active); in assay [14], 1.67 µM (inactive); in [15], 0.414 µM; in assay [16], 0.708 µM (active).

In the case of `O=C(Nc1nnc(S)[nH]1)C(=O)C(C(=O)c1ccc2ccccc2c1)C1OC(=O)c2ccccc21` (stereo unspecified), the GI50 in [1] is 11.5 µM (inactive); in [2], 31 µM (inactive); in assay [3] it was 35 µM (inactive); in assay [17], 25.8 µM (inactive); in assay [4], 15.5 µM (inactive); in assay [5], 25.5 µM (inactive). Further, the GI50 in assay [6] was 39.7 µM (inactive); in assay [18] it was 15.9 µM (inactive); in [7], 26.8 µM (inactive); in assay [8], 4.85 µM (inactive); in assay [9], 17.1 µM (inactive); in [10], 14.8 µM (inactive). Further, the GI50 in [19] was 7.64 µM (inactive); in assay [12] it was 3.78 µM (inactive); in assay [13], 16.2 µM (inactive); in assay [14], 19.7 µM (inactive); in [15], 27.9 µM; in [16] it was 11.9 µM (inactive).

Consider `CC(C)(C)c1cc(C(=O)/C=C/c2ccc3c(c2)OCO3)cc(C(C)(C)C)c1O`, for which the GI50 in assay [1] is 1.75 µM (inactive); in [2] it was 32.4 µM (inactive); in assay [3] it was 5.73 µM (inactive); in [17] it was 25.6 µM (inactive); in [4] it was 4.53 µM (inactive); in assay [20] it was 2.18 µM (inactive). For the same compound, the GI50 in [6] was 21.9 µM (inactive); in assay [18], 5.61 µM (inactive); in [7], 5.05 µM (inactive); in [8], 15.2 µM (inactive); in [9], 9.82 µM (inactive); in assay [10], 18.6 µM (inactive). Besides, the GI50 is 5.7 µM (inactive) in [11]; 13.3 µM (inactive) in assay [19]; 5.6 µM (inactive) in assay [12]; 6.95 µM (inactive) in assay [13]; 2.95 µM (inactive) in [14]; 4.83 µM in assay [15]. The GI50 in [16] is 13.6 µM (inactive).

`C=C(C)[C@@H]1CC[C@]2(C(=O)O)CC[C@]3(C)[C@H](CC[C@@H]4[C@@]5(C)CC[C@H](O)C(C)(C)[C@@H]5CC[C@]43C)[C@@H]12` [BETULINIC ACID]: the GI50 in assay [1] is 6.31 µM (inactive); in assay [2], 7.59 µM (inactive); in assay [3] it was 8.24 µM (inactive); in [17], 3.27 µM (inactive); in assay [4], 2.61 µM (inactive); in assay [20], 5.53 µM (inactive). In addition, the GI50 in assay [6] is 16.1 µM (inactive); in assay [18], 4.63 µM (inactive); in assay [7], 5.93 µM (inactive); in [8], 13.2 µM (inactive); in assay [9], 2.58 µM (inactive); in assay [10] it was 17.1 µM (inactive). Moreover, the GI50 in [11] is 7.71 µM (inactive); in assay [19], 13.7 µM (inactive); in assay [12] it was 4.51 µM (inactive); in assay [13], 5.83 µM (inactive); in assay [14] it was 6.03 µM (inactive); in assay [15], 8.67 µM. For the same compound, in assay [16], the GI50 was 4.85 µM (inactive).

As for `COc1ccc(-c2cc(=O)c3c(O)c(OC)c(OC)c(OC)c3o2)cc1` [GARDENIN B], the GI50 in assay [1] was 1.71 µM (inactive); in assay [2], > 28.6 µM (inactive); in [3], 4.17 µM (inactive); in assay [17], 27.4 µM (inactive); in assay [4], 6.47 µM (inactive); in assay [20], 0.39 µM (active). The GI50 in [6] was > 100 µM (inactive); in assay [18], 7.83 µM (inactive); in assay [7], 0.92 µM (active); in [8], > 100 µM (inactive); in assay [9] it was > 36.3 µM (inactive); in assay [10] it was > 100 µM (inactive). Moreover, the GI50 in assay [11] was 20.7 µM (inactive); in assay [19] it was 25.4 µM (inactive); in assay [12], > 100 µM (inactive); in assay [13] it was > 100 µM (inactive); in [14], > 100 µM (inactive); in assay [15] it was 2.37 µM. Moreover, the GI50 in assay [16] is > 100 µM (inactive).
